Reference: patent publication US12539320B2, “Composition for improving eyesight” (South China Agricultural University, priority 2022, dated 2026)

Legend:
Type in all cases: in vivo, BALB/c mice
Details in all cases: 5 μL dripped into conjunctival sac 2 times a day for 15 days, mean (SD in next cell)
mice with xerophthalmia [1] = assay: Measurement of breakup time of tear film (fluorescein sodium, slit lamp) in xerophthalmia mice
Experimental: (§1) 1.1 Test animals: 100 SPF-grade 8-week-old healthy BALB/c mice, each weighed 18-22 g, were selected, and anterior segment and fundus of the eyes were not abnormal.
(§2) 1.2. Establishment of animal model: 90 mice were selected to induce a model of xerophthalmia. 5 μL of 2 g/L of a benzalkonium chloride solution was dripped into conjunctival sac of the eyes of 90 mice for 2 times a day and continuously for 15 days. After the modeling was success, the mice were randomly divided into 9 groups with 10 mice in each group.
(§3) 1.3. […] After 15 days, the secretion amount of tear, breakup time of a tear film, and the expression amount of conjunctival epithelial mucin MUC5AC were measured for the mice in each group.
(2) Measurement of breakup time of tear film: 1 μL of 10 g/L of a fluorescein sodium solution was dripped into the conjunctival sac of the mouse, after the mouse blinked, the eyes were artificially kept in a normal opening state, and time for a tear film to generate the 1st black spot (breaking point) was observed and recorded under a cobalt blue light of a slit lamp.

[2] = system: conjunctival epithelial mucin MUC5AC; assay: Expression amount of conjunctival epithelial mucin MUC5AC by Western Blot in xerophthalmia mice
Experimental: as §1, §2, §3
(3) Measurement of expression amount of conjunctival epithelial mucin MUC5AC: an expression level of the mucin MUC5AC in the conjunctival epithelial cells of the mouse was detected by Western Blot.

mice with xerophthalmia [3] = assay: Measurement of secretion amount of tear (phenol red cotton thread) in benzalkonium chloride-induced xerophthalmia mice
Experimental: as §1, §2, §3
(1) Measurement of secretion amount of tear: a phenol red cotton thread was placed in the conjunctival sac of the mouse at about ⅓ outside for 1 min and a length of a red part of the phenol red cotton thread was measured.

lutein ester [Comparative example 3]
Breakup time of tear film (mice with xerophthalmia [1]): 36.72 s | Expression amount of conjunctival epithelial mucin MUC5AC [2]: 0.38 ng/mg | Secretion amount of tear (mice with xerophthalmia [3]): 6.46 mm
